Drawing on PubChem BioAssay AID624258 (Broad Institute, 2012), this text covers growth rescue activity for 82 compounds.

The source made the active and inactive calls. The rule behind the calls is not given here.

A short description of one assay: Yeast SKN7 toxicity growth rescue counterscreen, Saccharomyces cerevisiae, plate reader, dose confirmatory (AID 624258).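 Note: growth read after three days of incubation at 30 °C; 0% = median of neutral control wells.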 Particulars: S. cerevisiae SKN7-toxicity growth rescue, plate reader; at 6.8 µM (top of the series).
Take `CCc1cc(SC#N)cc(C)c1NC(=O)CCl`: the growth rescue activity is -50.8% (inactive).

The assay is the same for the next values; noted with them: S. cerevisiae SKN7-toxicity growth rescue, plate reader; at 19.5 µM (top of the series).
As to `Cc1cc(C)c2sc(NNC(=O)c3ccc(S(=O)(=O)N4CCc5ccccc5C4)cc3)nc2c1`, the growth rescue activity is -31.4% (inactive).
Take `Cc1nc(Sc2ccccc2)c(C#N)c(C)c1[N+](=O)[O-]`: the growth rescue activity is 147% (inactive).
`COc1cccc(NC(=O)CN(C)C(=O)c2cccnc2Nc2cccc(C(F)(F)F)c2)c1`: the growth rescue activity was -21.3% (inactive).
Take `Cc1ccoc1C(=O)Nc1cccc(Oc2ccccc2)c1`: the growth rescue activity was -88.5% (inactive).
With `CCOC(=O)c1ccc(N2C(=O)CC(N3CCC(O)(c4ccc(Cl)cc4)CC3)C2=O)cc1` (configuration not stated), the growth rescue activity is -16.1% (inactive).
Consider `COC(=O)COC(=O)c1ccccc1NC(=O)c1ccccc1`, for which the growth rescue activity is -40.9% (inactive).
Same read-out and setting: next, `Cc1ccc(Cl)cc1NC1=C/C(=N\S(=O)(=O)c2cccs2)c2ccccc2C1=O`: -24.9% (inactive); `CC(C)(CN1CCc2ccccc2C1)NS(=O)(=O)c1ccc(Cl)cc1`: -9.34% (inactive); `O=C(COc1ccc(Cl)cc1)Nc1cccc(-c2ccc3nncn3n2)c1`: 13% (inactive).
Same read-out and setting: in the case of `COc1cccc(/C=N/Nc2ncnc3scc(-c4ccccc4)c23)c1O` it was -79.1% (inactive); in that of `CN(C)S(=O)(=O)Oc1cccc(C(=O)Nc2ccc(Cl)cc2)c1`, -19.4% (inactive).
Turning to `Nc1cc([N+](=O)[O-])ccc1O`, the growth rescue activity was -8.46% (inactive).
As to `O=C(NCCCNc1ccc(C(F)(F)F)cc1[N+](=O)[O-])c1ccc(Cl)cc1`, the growth rescue activity is -14.8% (inactive).
On to `COc1ccc(/C=N/Nc2cc(C)nc(-n3nc(C)cc3C)n2)cc1`, for which the growth rescue activity is -51.9% (inactive).
Turning to `CC1CCc2c(C(=O)Nc3ccccn3)csc2C1` (configuration not stated), the growth rescue activity is -95.2% (inactive).
For the compound `CCOC(=O)CN1C(=O)C2Cc3ccccc3CN2C1=S` (configuration not stated), the growth rescue activity is 41.4% (inactive).
Same read-out and setting: next, `O=c1c(/C=N/O)coc2ccc(Cl)cc12`: -4.03% (inactive); `N#Cc1ccc(Sc2ccccn2)c([N+](=O)[O-])c1`: 7.91% (inactive); `O=C(NCc1ccncc1)c1ccccc1Nc1ccc(SC(F)F)cc1`: -49.8% (inactive).
Still for that read-out and setting: in the case of `CCOC(=O)c1c(C)[nH]c2c1-c1ccccc1C(=O)C2=O` it was -17.4% (inactive); in that of `O=C(Oc1c(-c2ccccc2)c(=O)n2c3c(cccc13)CC2)c1cccc([N+](=O)[O-])c1`, -37.6% (inactive); in that of `Oc1c(I)cc(Cl)c2cccnc12`, -81.1% (inactive).
On to `Cc1ccc(Sc2cc(C)nc(-c3ccccn3)n2)cc1`, for which the growth rescue activity was -67.1% (inactive).
As to `O=C(c1cccs1)c1no[n+]([O-])c1C(=O)c1cccs1`, the growth rescue activity was -87.1% (inactive).
For the compound `Cc1ccc(S(=O)(=O)N(C(=O)c2ccncc2)c2ccc(OC(=O)c3ccncc3)cc2)cc1`, the growth rescue activity is -57.3% (inactive).
In the case of `Oc1ccc(/C=N/Nc2ccc(C(F)(F)F)cn2)c(O)c1`, the growth rescue activity is -73.7% (inactive).
Still for that read-out and setting: in the case of `O=C1N(c2ccc(Cl)cc2)C(c2cccnc2)N2CCCN12` (configuration not stated) it was -65.4% (inactive); in that of `CC1(OC(=O)CCc2ccccc2)C(=O)C=C2C=C(c3ccc(C#N)cc3)N(Cc3ccco3)C=C2C1=O` (configuration not stated), 3.67% (inactive); in that of `S=C1NC[C@H](c2ccccc2)N1CCCCC1CCCCC1`, 85.2% (inactive).
For the compound `Cc1ccc(O)c(-c2cc(-c3ccccc3C)[nH]n2)c1`, the growth rescue activity was -92.1% (inactive).
Still for that read-out and setting: in the case of `Oc1ccccc1-c1cc(-c2ccc3c(c2)OCCO3)n[nH]1` it was 2.6% (inactive); in that of `O=C(CN1CCN(c2ncc(C(F)(F)F)cc2Cl)CC1)NCCNc1ncc(C(F)(F)F)cc1Cl`, -35.8% (inactive).
With `Clc1nc(-c2ccccn2)nc2scc(-c3ccccc3)c12`, the growth rescue activity is -76.2% (inactive).
As for `O=[N+]([O-])c1ccc2c(OCc3nnc(-c4ccccc4Br)o3)ncnc2c1`, the growth rescue activity is 7.4% (inactive).
Take `Clc1ccc(CSC(Cn2ccnc2)c2ccc(Cl)cc2Cl)cc1` (configuration not stated): the growth rescue activity is -73% (inactive).
On to `Cc1nc2c(o1)C(=O)c1ccccc1C2=Nc1ccccc1`, for which the growth rescue activity is -29.5% (inactive).
Consider `O=C1CC(c2cccc([N+](=O)[O-])c2)c2ccc3ccccc3c2N1` (configuration not stated), for which the growth rescue activity was 47.4% (inactive).
For the compound `O=C(c1cc(COc2ccc(F)cc2Cl)on1)N1CCC(c2ccncc2)CC1`, the growth rescue activity was -20.9% (inactive).
Consider `COc1cccc(/C=N/NC(=O)c2nc(-c3ccccc3)cc(-c3ccccc3)n2)c1O`, for which the growth rescue activity is -39.2% (inactive).
Take `O=S(=O)(O)c1cc(Cl)cc(N=Nc2ccc(O)cc2O)c1O`: the growth rescue activity was 41.4% (inactive).
For the compound `COC(=O)Cc1cc(=O)n(-c2ccccc2)[nH]1`, the growth rescue activity was 9.07% (inactive).
As to `CC1(C)C2CCC1(C)C(OC(=O)c1ccc(O)cc1)C2` (configuration not stated), the growth rescue activity is -86.9% (inactive).
The same measure, in the same setting: in the case of `Cc1oc2c(c1C(=O)c1ccccc1)C(=O)C(=O)c1ccccc1-2` it was 16.8% (inactive); in that of `O=C(Nc1cc(Oc2ccc(Cl)cc2)cc([N+](=O)[O-])c1)c1ccco1`, -42.9% (inactive); in that of `Cc1cc(NS(=O)(=O)c2ccc(C3CCCCC3)cc2)no1`, -38.7% (inactive).
As for `O=C(c1ccccc1)c1ccc(Cn2cc(-c3ccccc3)nn2)cc1`, the growth rescue activity was 19.2% (inactive).
Turning to `O=C(O)/C(=C\c1ccc(F)cc1)c1ccc(-c2ccccc2)cc1`, the growth rescue activity is -66.8% (inactive).
As for `CN(C)CCCNC(=O)c1ccc(-c2nc(-c3ccc(Cl)cc3)cs2)cc1`, the growth rescue activity is 0.817% (inactive).
On the same count and under the same terms, in the case of `Cn1c(-c2ccccc2)cnc1NCc1ccc(-c2ccccc2)cc1` it was -67.3% (inactive); in that of `C=CCc1ccc(O)c(-c2ccc(O)c(CC=C)c2)c1`, -65.1% (inactive).
On to `COC(=O)C1=NN(C(=O)c2cccc(Br)c2)C(O)(c2ccc(Cl)cc2)C1` (configuration not stated), for which the growth rescue activity was -17.5% (inactive).
In the case of `CC1CCN(c2ccc3c(c2)S(=O)(=O)c2ccccc2C3=O)CC1`, the growth rescue activity is -45.6% (inactive).
On to `COc1ccccc1-c1sc2cc3c(cc2c1C#Cc1cncn1C)OCO3`, for which the growth rescue activity is -72% (inactive).
As to `c1cnc2c(c1)ccc1cccnc12`, the growth rescue activity is -64% (inactive).
Take `COc1ccc(OC)c(-c2c3cc(O)c(=O)cc-3oc3cc(O)c(O)cc23)c1`: the growth rescue activity is 26.2% (inactive).
For `Cn1c(SCC(=O)N2c3ccccc3Sc3ccc(Cl)cc32)nnc1-c1ccco1`, the growth rescue activity was -51.2% (inactive).
With `CCN1/C(=C/c2sc(-c3ccccc3C)c[n+]2C)Sc2ccccc21`, the growth rescue activity is -60.6% (inactive).
Regarding `Cc1ccccc1CN(C)CCS(=O)(=O)c1cc(Cl)ccc1Cl`, the growth rescue activity was -67.7% (inactive).
The same measure, in the same setting: in the case of `O=C(CC1CC2CCC1C2)Nc1nc(-c2ccccn2)cs1` (configuration not stated) it was -53.4% (inactive).
The same measure, in the same setting: in the case of `CC[C@@H](C(=O)[C@@H](C)[C@@H](O)[C@H](C)[C@@H]1O[C@@H]([C@@H](CC)C(=O)O)CC[C@@H]1C)[C@H]1O[C@]2(C=C[C@@H](O)[C@]3(CC[C@@](C)([C@H]4CC[C@](O)(CC)[C@H](C)O4)O3)O2)[C@H](C)C[C@@H]1C` it was -61.6% (inactive); in that of `COc1ccc(N/N=C(\C#N)C(N)=O)cc1`, -58.5% (inactive); in that of `O=C(C1CCN(C2CC(=O)N(c3cccc(Cl)c3)C2=O)CC1)N1CCCC1` (configuration not stated), 84.3% (inactive).
On to `COc1cc2cnc(-c3ccccc3)c(C(=O)c3ccc(F)cc3)c2cc1OC`, for which the growth rescue activity was 2.41% (inactive).
On the same count and under the same terms, in the case of `O=C(O)CSc1nc(-c2ccc(Cl)cc2)nc2c1oc1ccccc12` it was -84.1% (inactive); in that of `O=C(Oc1c(Cl)cc(Cl)c2cccnc12)c1cccs1`, -79.3% (inactive).
On the same count and under the same terms, in the case of `CC(=O)C1=C(c2cccc([N+](=O)[O-])c2)N(C(C)=O)n2c(C)nnc2S1` it was -84.3% (inactive); in that of `Cn1nnnc1N=N/C(=N/Nc1ccccc1)c1ccccc1`, -47% (inactive).
For the compound `COc1nc(NC23CC4CC(CC(C4)C2)C3)nc(OC)n1`, the growth rescue activity was 145% (inactive).
Regarding `CC(=O)Nc1cccc(-c2cc(-c3c(Cl)cccc3Cl)no2)c1`, the growth rescue activity was -92.6% (inactive).
Regarding `O=C(NCCC(=O)N1CCN(c2ccccc2O)CC1)c1ccc(Br)cc1`, the growth rescue activity was -9.2% (inactive).
In the case of `CC(C)CSc1n[nH]c(=S)s1`, the growth rescue activity is -51% (inactive).
Regarding `O=C(O)CSc1cc(NS(=O)(=O)c2ccc(Cl)cc2)c2ccccc2c1O`, the growth rescue activity was -5.81% (inactive).
`CCOc1ccc(N/N=C(/C#N)C(N)=O)cc1`: the growth rescue activity is -49.6% (inactive).
The same measure, in the same setting: next, `Cc1nc2ccc(C(=O)NCc3ccc4c(c3)OCO4)cc2s1`: -2.94% (inactive); `CC1CC(C)(O)CC(C(O)CC2CC(=O)NC(=O)C2)C1=O` (configuration not stated): 2.36% (inactive).
In the case of `Cc1cc(O)ccc1N=Cc1c(C(F)(F)F)[nH][nH]c1=O`, the growth rescue activity was -11.8% (inactive).
The same measure, in the same setting: in the case of `Oc1c(CN2CCCC2)cc(COCc2ccccc2)c2cccnc12` it was 23.1% (inactive); in that of `CCCCNC(=S)N/N=C1\CCCCc2ccccc21`, -53.8% (inactive); in that of `O=C(N/N=C/c1cc(Br)cc(Cl)c1O)c1ccc2c(c1)OCO2`, -36.6% (inactive).
The same measure, in the same setting: in the case of `CC12CC3(C)CC(C)(C1)CC(NC(=O)N1CCCC1)(C2)C3` it was -73.5% (inactive); in that of `Cc1ccc(-c2c3c(nc4sc(C(N)=O)c(N)c24)CCCC3)o1`, -35.3% (inactive).
